Data published in patent publication US5140014A (Abbott Laboratories, priority 1989, dated 1992).
Converted amounts (≈) assume the structure as drawn. Read-outs that look alike come from different tables or passages of the source.

Experiments:
Experiment in all cases: in vitro antibacterial activity, agar dilution method (MIC)
Assay type in all cases: cell-based
[1] = system: Escherichia Coli; conditions: BHI agar, 20-24 hours
Experimental: (§1) Compounds 1 to 8 were evaluated for antibacterial activity by the agar dilution method to determine the degree of in vitro susceptibility of aerobic microorganisms to antimicrobial agents. The test medium was Brain Heart Infusion (BHI) agar. The antibacterial agent was dissolved at a concentration of 2,000 ug/mL. Test plates were then prepared, usually 12 two-fold dilutions. After adding the sample to the plates, 10 mL of cooled BHI agar medium was added to each plate. The organisms were grown overnight in BHI broth (Difco) in a 35°-37° C. incubator.
(§2) On the day of testing, the bacterial suspensions were diluted 1:100 in sterile distilled water, except for a few slow-growing organisms (usually Micrococcus and Streptococcus) which were diluted 1:10. The plate was then inoculated with approximately 10^4 organisms. This was incubated in a 35°-37° C. incubator for 20-24 hours. Thereafter, the plates were read to determine the minimum inhibitory concentration (MIC) defined as the lowest concentration of drug yielding no growth on the plate, a slight haze, or sparsely isolated colonies on the inoculum spot as compared to the growth control.

[2] = system: Pseudomonas Cepacia; conditions: Burkholderia cepacia; strain 296I; BHI agar, 20-24 hours; read-out: MIC
Experimental: as §1, §2

[3] = system: Acinetobacter Sp; conditions: Acinetobacter, strain CMX 669; BHI agar, 20-24 hours; read-out: MIC
Experimental: (§3) The test medium was Brain Heart Infusion (BHI) agar. The antibacterial agent was dissolved at a concentration of 2,000 ug/mL. Test plates were then prepared, usually 12 two-fold dilutions. After adding the sample to the plates, 10 mL of cooled BHI agar medium was added to each plate. The organisms were grown overnight in BHI broth (Difco) in a 35°-37° C. incubator.
as §2

[4] = system: Klebsiella Pneumoniae; conditions: Klebsiella pneumoniae, ATCC8045, strain ATCC 8045; BHI agar, 20-24 hours; read-out: MIC
Experimental: as §3, §2

[5] = system: Micrococcus Luteus; conditions: Micrococcus luteus, BHI agar, 20-24 hours, read-out: MIC
Experimental: as §3, §2

[6] = system: Staphylococcus Epidermidis; conditions: Staphylococcus epidermidis, strain 3519; BHI agar, 20-24 hours; read-out: MIC
Experimental: as §3, §2

[7] = system: Staphylococcus Aureus; conditions: Staphylococcus aureus, BHI agar, 20-24 hours, read-out: MIC
Experimental: as §3, §2

[8] = system: Streptococcus Pyogenes; conditions: Streptococcus pyogenes
Experimental: as §3, §2

[9] = system: Enterococcus Faecium; conditions: Enterococcus faecium, ATCC8043, strain ATCC 8043; BHI agar, 20-24 hours; read-out: MIC
Experimental: as §3, §2

[10] = system: Streptococcus Bovis; conditions: Streptococcus equinus, strain A5169, BHI agar, 20-24 hours
Experimental: as §3, §2

[11] = system: Providencia Stuartii; conditions: Providencia stuartii; strain CMX 640; BHI agar, 20-24 hours; read-out: MIC
Experimental: as §3, §2

[12] = system: Streptococcus Agalactiae; conditions: Streptococcus agalactiae
Experimental: as §3, §2

[13] = system: Pseudomonas Aeruginosa; conditions: Pseudomonas aeruginosa, BHI agar, 20-24 hours, read-out: MIC
Experimental: as §3, §2

[14] = system: Enterobacter Aerogenes; conditions: Klebsiella aerogenes, ATCC13048, strain ATCC 13048; BHI agar, 20-24 hours; read-out: MIC
Experimental: as §3, §2

[15] = system: Haemophilus Influenzae; conditions: BHI agar, 20-24 hours
Experimental: as §3, §2

[16] = Escherichia coli, strain DC-2, read-out: MIC
[17] = Escherichia coli, strain JUHL, read-out: MIC
[18] = Escherichia coli, strain KNK 437, read-out: MIC
[19] = Escherichia coli, strain SS, read-out: MIC
[20] = strain 930 CONST, BHI agar, 20-24 hours, read-out: MIC
[21] = strain 2548 INDUC, BHI agar, 20-24 hours, read-out: MIC
[22] = Haemophilus influenzae, ATCC9795, strain ATCC 9795, read-out: MIC
[23] = Haemophilus influenzae, ATCC10211, strain ATCC 10211, read-out: MIC
[24] = Haemophilus influenzae, ATCC19418, strain ATCC 19418, read-out: MIC
[25] = Haemophilus influenzae, strain 504, read-out: MIC
[26] = Haemophilus influenzae, strain 519A, read-out: MIC
[27] = Haemophilus influenzae, strain 566A, read-out: MIC
[28] = Haemophilus influenzae, strain 632A, read-out: MIC
[29] = Haemophilus influenzae, strain 747C, read-out: MIC
[30] = Haemophilus influenzae, strain 751, read-out: MIC
[31] = Haemophilus influenzae, strain 1177, read-out: MIC
[32] = Haemophilus influenzae, strain 1435, read-out: MIC
[33] = Haemophilus influenzae, strain DILL AMP R, read-out: MIC
[34] = Haemophilus influenzae, strain SOL AMP R, read-out: MIC
[35] = Haemophilus influenzae, strain SPK AMP R, read-out: MIC

CCC1OC(=O)CC(O)C(C)C(OC2OC(C)CC(N(C)C)C2O)C(CC=O)CC(C)C(N(C)C)C=CC(C)=CC1COC(C)=O (stereo not shown) [Example 5, [9R]-23-O-Acetyl-9-deoxo-4'-deoxy-9-N,N-dimethylamino-5-O-mycaminosyl-tylonide]
MIC [1, 16]: 6.2 µg/mL (≈ 9.5 µM) | MIC ([1]; Escherichia coli, strain H560, read-out: MIC): 3.1 µg/mL (≈ 4.75 µM) | MIC [1, 17]: 12.5 µg/mL (≈ 19.1 µM) | MIC [1, 18]: 12.5 µg/mL (≈ 19.1 µM) | MIC [1, 19]: 0.2 µg/mL (≈ 0.306 µM) | MIC [2]: > 100 µg/mL | MIC [3]: 3.1 µg/mL (≈ 4.75 µM) | MIC [4]: 25 µg/mL (≈ 38.3 µM) | MIC ([5]; ATCC4698, strain ATCC 4698): 0.1 µg/mL (≈ 0.153 µM) | MIC ([5]; ATCC9341, strain ATCC 9341): 0.1 µg/mL (≈ 0.153 µM) | MIC [6]: 0.39 µg/mL (≈ 0.597 µM) | MIC ([7]; ATCC6538P, strain ATCC 6538P): 0.39 µg/mL (≈ 0.597 µM) | MIC ([7]; NCTC10649, strain NCTC 10649): 0.39 µg/mL (≈ 0.597 µM) | MIC ([7]; strain 45): 0.39 µg/mL (≈ 0.597 µM) | MIC ([7]; strain 45 RAR2): 0.78 µg/mL (≈ 1.19 µM) | MIC ([7]; strain 642A): 0.78 µg/mL (≈ 1.19 µM) | MIC ([7]; strain A5177): 0.39 µg/mL (≈ 0.597 µM) | MIC ([7]; strain CMX 553): 0.78 µg/mL (≈ 1.19 µM) | MIC [8]: 0.05 µg/mL (≈ 0.0766 µM) | MIC [8, 20]: 50 µg/mL (≈ 76.6 µM) | MIC [8, 21]: 0.2 µg/mL (≈ 0.306 µM) | MIC [9]: 0.1 µg/mL (≈ 0.153 µM) | MIC [10]: 0.05 µg/mL (≈ 0.0766 µM) | MIC [11]: > 100 µg/mL | MIC [12]: 0.05 µg/mL (≈ 0.0766 µM) | MIC ([13]; strain A5007): > 100 µg/mL | MIC ([13]; strain BMH10): 100 µg/mL (≈ 153 µM) | MIC ([13]; strain K799/61): 1.56 µg/mL (≈ 2.39 µM) | MIC ([13]; strain K799/WT): > 100 µg/mL | MIC [14]: 50 µg/mL (≈ 76.6 µM) | MIC [15, 22]: 2 µg/mL (≈ 3.06 µM) | MIC [15, 23]: 2 µg/mL (≈ 3.06 µM) | MIC [15, 24]: 2 µg/mL (≈ 3.06 µM) | MIC ([15]; Haemophilus influenzae, ATCC43095, strain ATCC 43095, read-out: MIC): 2 µg/mL (≈ 3.06 µM) | MIC ([15]; Haemophilus influenzae, strain 503B, read-out: MIC): 2 µg/mL (≈ 3.06 µM) | MIC [15, 25]: 1 µg/mL (≈ 1.53 µM) | MIC [15, 26]: 1 µg/mL (≈ 1.53 µM) | MIC [15, 27]: 4 µg/mL (≈ 6.13 µM) | MIC ([15]; Haemophilus influenzae, strain 588A, read-out: MIC): 2 µg/mL (≈ 3.06 µM) | MIC [15, 28]: 2 µg/mL (≈ 3.06 µM) | MIC ([15]; Haemophilus influenzae, strain 667A, read-out: MIC): 2 µg/mL (≈ 3.06 µM) | MIC [15, 29]: 2 µg/mL (≈ 3.06 µM) | MIC [15, 30]: 4 µg/mL (≈ 6.13 µM) | MIC [15, 31]: 0.12 µg/mL (≈ 0.184 µM) | MIC [15, 32]: 1 µg/mL (≈ 1.53 µM) | MIC [15, 33]: 2 µg/mL (≈ 3.06 µM) | MIC [15, 34]: 2 µg/mL (≈ 3.06 µM) | MIC [15, 35]: 2 µg/mL (≈ 3.06 µM)

CCC1OC(=O)CC(O)C(C)C(OC2OC(C)C(O)C(N(C)C)C2O)C(CC=O)CC(C)C(N(C)C)CCC(C)=CC1COC(C)=O (stereo not shown) [Example 6, [9R]-23-O-Acetyl-9-deoxo-10,11-dihydro-9-N,N-dimethylamino-5-O-mycaminosyl-tylonide]
MIC [1, 16]: 100 µg/mL (≈ 149 µM) | MIC [1, 17]: > 100 µg/mL | MIC [1, 18]: > 100 µg/mL | MIC [1, 19]: 1.56 µg/mL (≈ 2.33 µM) | MIC ([1]; strain H560): 50 µg/mL (≈ 74.5 µM) | MIC [2]: > 100 µg/mL | MIC [3]: > 100 µg/mL | MIC [4]: > 100 µg/mL | MIC ([5]; ATCC4698, strain ATCC 4698): 1.56 µg/mL (≈ 2.33 µM) | MIC ([5]; ATCC9341, strain ATCC 9341): 0.78 µg/mL (≈ 1.16 µM) | MIC [6]: 3.1 µg/mL (≈ 4.62 µM) | MIC ([7]; ATCC6538P, strain ATCC 6538P): 3.1 µg/mL (≈ 4.62 µM) | MIC ([7]; NCTC10649, strain NCTC 10649): 3.1 µg/mL (≈ 4.62 µM) | MIC ([7]; strain 45): 3.1 µg/mL (≈ 4.62 µM) | MIC ([7]; strain 45 RAR2): 6.2 µg/mL (≈ 9.24 µM) | MIC ([7]; strain 642A): 6.2 µg/mL (≈ 9.24 µM) | MIC ([7]; strain A5177): 3.1 µg/mL (≈ 4.62 µM) | MIC ([7]; strain CMX 553): 6.2 µg/mL (≈ 9.24 µM) | MIC [8, 20]: > 100 µg/mL | MIC [8, 21]: 3.1 µg/mL (≈ 4.62 µM) | MIC ([8]; strain EES61, BHI agar, 20-24 hours, read-out: MIC): 0.39 µg/mL (≈ 0.581 µM) | MIC [9]: 1.56 µg/mL (≈ 2.33 µM) | MIC ([10]; read-out: MIC): 0.1 µg/mL (≈ 0.149 µM) | MIC [11]: > 100 µg/mL | MIC ([12]; strain CMX 508, BHI agar, 20-24 hours, read-out: MIC): 0.39 µg/mL (≈ 0.581 µM) | MIC ([13]; strain A5007): > 100 µg/mL | MIC ([13]; strain BMH10): > 100 µg/mL | MIC ([13]; strain K799/61): 6.2 µg/mL (≈ 9.24 µM) | MIC ([13]; strain K799/WT): > 100 µg/mL | MIC [14]: > 100 µg/mL | MIC [15, 22]: 4 µg/mL (≈ 5.96 µM) | MIC [15, 23]: 4 µg/mL (≈ 5.96 µM) | MIC [15, 24]: 8 µg/mL (≈ 11.9 µM) | MIC [15, 25]: 2 µg/mL (≈ 2.98 µM) | MIC [15, 26]: 2 µg/mL (≈ 2.98 µM) | MIC [15, 27]: 8 µg/mL (≈ 11.9 µM) | MIC [15, 28]: 8 µg/mL (≈ 11.9 µM) | MIC [15, 29]: 8 µg/mL (≈ 11.9 µM) | MIC [15, 30]: > 16 µg/mL | MIC [15, 31]: 0.25 µg/mL (≈ 0.373 µM) | MIC [15, 32]: 4 µg/mL (≈ 5.96 µM) | MIC [15, 33]: 4 µg/mL (≈ 5.96 µM) | MIC [15, 34]: 8 µg/mL (≈ 11.9 µM) | MIC [15, 35]: 8 µg/mL (≈ 11.9 µM) | MIC ([15]; strain 503B): 8 µg/mL (≈ 11.9 µM) | MIC ([15]; strain ATCC 43095): 8 µg/mL (≈ 11.9 µM)
